Entries after “also recorded” stand apart in the source; their conditions may differ. Where only a bound is given, the exact number is not on record here.

A short description of test [1]: In vitro MR imaging (T1/T2 relaxivity) of SL-BGQDs and Gd-DTPA in PBS at 14 T. Format: physicochemical. As to conditions: SL-BGQDs per boron molar concentration.
Description: To evaluate the applicability of using SL-BGQDs as contrast agents for MR imaging, quantitative T1 and T1-weighted MR imaging scan sequences were acquired of SL-BGQD samples in PBS at magnetic field strength of 14T. […] 1/T1 was then plotted against the boron molar concentration in SL-BGQDs (FIG. 13D).
T1- and T2-weighted imaging and quantitative T1 and T2 MR imaging scan sequences were used to investigate the contrast enhancing capabilities of SL-BGQDs. MR imaging was conducted on a Bruker Avance III 600 MHz, 14 T wide bore spectrometer. […] The vials were fixed in place inside a water reservoir; the water served as a homogeneous background signal to minimize magnetic susceptibility variations near samples. The secured vials were placed in a 25 mm single-channel ^1H radiofrequency receiving coil (PB Micro 2.5). […] Quantitative T2 values were measured using a multi-spin multi-echo (MSME) pulse sequence with TR=2500 ms, TE=6.7+6n ms (n=0-16), and 78×156 μm^2 in-plane resolution with 0.5 mm slice thickness for 14 slices. T1-weighted images were acquired with a RARE pulse sequence with TE=5.49 ms, TR=531 ms, 78×52 μm^2 in-plane resolution and 0.5 mm slice thickness for 10 slices. […] T1 values were determined within a circular, 100-voxel region of interest.
Test [2] deals with C57BL/6 wild-type mice. The test can be described thus: In vivo abdominal T1-weighted MR imaging, SL-BGQDs vs Gd-DTPA. The source says:
T1-weighted MR images of the cross-sectional views of mice centered within the abdomen were acquired before and after contrast agent injection.
(§1) Mice were anesthetized with isoflurane (Piramal Healthcare) and secured in a coil-integrated respiratory monitoring system (SA Instruments; MR-compatible small animal monitoring and gating system) with nose-cone for oxygen/anesthetic, ear-bar head holder, circulating temperature control bath, and residual gas extraction. Abdominal scans were acquired using rapid acquisition with refocused echoes (RARE) T1-weighted (TR/TE=691/5.5 ms, in-plane resolution 93×62 μm^2, matrix 256×284) sequences and slices placed in the transverse plane with 0.5 mm slice thickness and 0.75 mm interslice gaps allowing for coverage from the liver to the pelvic floor. Cranial scans were acquired over the entire head with a 3-dimensional, T1-weighted fast low angle shot (FLASH) scan sequence (TR/TE=16.2/2.7 ms, resolution 106×108×152 μm^3, matrix 284×186×132). Images from this cranial scan sequence were processed using a maximum intensity projection with a 3 mm slab thickness.

In test [3] the test system is C57BL/6 wild-type mice. The test can be described thus: In vivo cranial T1-weighted MR imaging (neurovasculature), SL-BGQDs vs Gd-DTPA. As to conditions: 10 min after i.v. 200 μL, 5 mg mL^−1.
Description: as §1

For test [4] the following is noted: comparison values quoted in text; field not stated; cited from earlier work.

As to `O=C([O-])CN(CCN(CC(=O)[O-])CC(=O)O)CCN(CC(=O)[O-])CC(=O)O.[Gd+3]` [Gd-DTPA, gadolinium diethylene penta-acetic acid], the “longitudinal relaxivity, r1” value in test [1] was determined as 4.3 mM⁻¹ s⁻¹. The “T1-weighted contrast enhancement in any organ at 60 min post-injection” value in test [2] (60 min post-injection, i.v. 200 μL, 1 mg mL^−1) is “completely nullified; also recorded: no T1-weighted signal increase was detected”. In test [2] (i.v. 200 μL, 1 mg mL^−1), the “time of peak contrast enhancement post-injection” value was at most 10 min. For the same compound, in test [2] (i.v. 200 μL, 1 mg mL^−1, 14 T), the “signal enhancement in renal cortex, renal pelvis and gall bladder, post- vs pre-injection” value is on record as “substantial signal enhancement”. Besides, the imaging time result in test [2] (summary statement) is “about 10 min”. Besides, the “contrast of cranial vasculature, post- vs pre-injection” value in test [3] is reported as “no apparent change in contrast”. Also, in test [4], the “r1 relaxivity of comparison T1 CAs” value was 5.39 mM⁻¹ s⁻¹.

Values taken from US10814021B2, “Paramagnetic boron-doped graphene quantum dots and their application for safe magnetic resonance imaging” (priority 2017, dated 2020).
